In publication PMC12650519, “The Identification of a Sub-Micromolar Peptide-Based Protein Arginine Methyltransferase 1 (PRMT1) Inhibitor from a Plate-Based Screening Assay” (Biomolecules, 2025):
Like-named read-outs stand apart in the source and are kept apart here. Starred links: 1 amine or outer side, 2 acyl side, 3 side chain; linkers in the order of their positions; H or OH if unused. Non-standard residues stand in square brackets, D forms with d. Residues, ends and D or L forms follow the SMILES beside them. X1 = N=C(CCl)NCCC[C@H](N[*:1])C(=O)[*:2]

Tests used:
[1] = molecular target: T1, PRMT1 (Homo sapiens, UniProt Q99873); test: MTase-Glo assay, inhibition by chloroacetamidine warhead peptide; type: biochemical; settings: inhibitor 0–250 µM, 4 µL of 400 nM PRMT1, 15 min pre-incubation at 37 °C, substrate AcH4-21 (1 µL of 225 µM), Tris pH 8.0
T1 construct: made in house
Procedure: The MTase-Glo assay was also used to determine the inhibition parameters of the chloroacetamidine warhead peptide. For this assay, various concentrations of the chloroacetamidine warhead peptide (0–250 µM) were added to reaction buffer (80 mM Tris Buffer [pH 8.0], […], 4 mM EDTA, 12 mM MgCl2, 0.4 mg/mL BSA and 4 mM DTT) and incubated for 10 min at 37 °C. Following this incubation, 4 µL of 400 nM PRMT1 was added to the inhibition reaction mix and continued to be incubated at 37 °C for 15 min. The substrate peptide, 1 uL of 225 µM AcH4-21, was added to each reaction for 15 min. To quench the reaction, each sample received 2 µL of 0.5% TFA solution and placed at room temperature before 2.2 µL of the 6× MTase-Glo reagent was added to each sample for 30 min. Then 13.2 µL of the MTase-Glo Detection solution was added and incubated for an additional 30 min. The luminescence signal was read using a BioTek Synergy 2 Multi-Mode Microplate Reader and the % activity was calculated using an SAH standard curve (0–5 µM) before being fit to Equation (2):(2) Fractional Activity of PRMT=1/1+ 1/IC50 using GraFit version 7.03.

[2] = molecular target: T1, PRMT1; settings: cited from earlier work
Procedure: Table 3 List of Validation Peptide Sequences along with the Kinetic Parameters. | column: kcat (min^−1); Km (µM); kcat/Km (M^−1 min^−1) || Design and Synthesis of the Peptide Library. Histone peptides are well-documented substrates of PRMT1 and thus provide a good model for the design of a screening library to search for better PRMT1 peptide substrates. […] Given that our study is focused on identifying peptide substrates with improved kinetic parameters, we chose to use a library based on the H4-16 template. Our previous work highlighted that flexibility was permitted within the ... || Rather than testing all individual hit peptide sequences, and to help identify the specific elements that are important for PRMT1 substrate binding, we collected and synthesized a series of consensus-based sequences from the list of hit peptides.

[3] = molecular target: T1, PRMT1; test: MTase-Glo Methyltransferase Assay, kinetic parameters of peptide substrates; type: biochemical; settings: Tris pH 8.0; for kcat / Km: MTase-Glo luminescence, peptide 0–1000 µM, 4 µL of 200 nM PRMT1, 10 min at 37 °C, SAH standards, fit with GraFit; for kcat/Km: from kcat and Km, MTase-Glo assay, 37 °C
Procedure: To determine the kinetic parameters, kcat, Km and kcat/Km for each of the validation or hit peptides, a MTase-Glo™ Methyltransferase Assay from the Promega Corporation was utilized to monitor the enzymatic reaction.
Varying concentrations (0–1000 µM) of the peptide in assay buffer (4 mM DTT, 0.4 mg/mL BSA, 4 mM EDTA, 12 mM MgCl2, 200 mM NaCl and 80 mM Tris Buffer-pH 8.0) were incubated at 37 °C for 10 min. Then 4 µL of 200 nM PRMT1 was added to this reaction mixture and continued for another 10 min at 37 °C. Of note the enzymatic activity was linear with respect to time and enzyme concentration under these conditions. The reaction was quenched by the addition of 2 µL 0.5% TFA and placed at room temperature before adding 2.2 µL of the 6× MTase-Glo Reagent. After 30 min, 13.2 µL of the MTase-Glo Detection Solution was added and incubated for an additional 30 min before the luminescence was read using a BioTek Synergy 2 Multi-Mode Microplate Reader (Agilent Technologies, Santa Clara, CA). Luminescence signal was converted to product concentration using SAH standards (0–5 μM) and the initial rates were fit to Equation (1):[…](1) using GraFit version 7.03.

[4] = test system: PRMT1; test: Plate-based on-bead substrate screening assay (ADMA antibody / alkaline phosphatase / BCIP); type: biochemical; settings: 20 beads/well; 500 nM PRMT1, 400 µM SAM, 37 °C, HEPES pH 8.0; hit = at least 10 blue beads per well
Procedure: The beads from the filter plate were transferred to an Acrowell 96 Filter screening plate (Cat#5020; Pall Corporation; Port Washington, NY) and rinsed with 0.20 mL DI water, followed by 0.20 mL of TBST 10 times. The beads were swelled with 0.25 mL TBST overnight with gentle rocking at 4 °C. The plate was rinsed with 0.25 mL of Assay Buffer #1 (50 mM HEPES pH 8.0, 50 mM NaCl, 1 mM EDTA). After draining, the plate was incubated with 500 nM PRMT1 in 0.1 mL of Assay Buffer #2 (50 mM HEPES pH 8.0, 50 mM NaCl, 1 mM EDTA, 0.5 mM DTT, 400 µM SAM) for 90 min at 37 °C while rocked gently at 120 rpm. The plate was rinsed with TBST (5 × 0.20 mL) then rocked gently in 100 µL of 0.1% SDS for 15 min at room temperature, before being washed with DI water (10 × 0.20 mL) and TBST (10 × 0.20 mL).
Beads were blocked with 125 µL of 1.5% (w/v) BSA in TBST for 1 h at room temperature with gentle rocking. The beads were rinsed with TBST (5 × 0.20 mL), then incubated overnight at 4 °C with 0.065 mL total volume of TBST + 1.5% (w/v) BSA + 1:500 Ab412 antibody (purchased from Abcam; Cambridge, UK) with gentle rocking.
The plate was then rinsed with 0.20 mL of TBS for 10 min and 0.20 mL TBST for another 10 min. The plate was incubated with gentle rocking for 60 min at room temperature with 0.065 mL total volume of TBST + 1.5% (w/v) BSA + 1:4000 Ab98690 antibody (secondary antibody: purchased from Abcam; Cambridge, UK). This mixture was rinsed with TBS (10 × 0.20 mL), then 0.2 mL TBST for 10 min. The plate was then incubated with 2.5 mg/mL 5-Bromo-4-chloro-3-indolyl phosphate (BCIP: a substrate that detects alkaline phosphatase emitting a blue hue when conjugated with secondary antibodies) dissolved in BCIP buffer (5.85 g NaCl, 12.1 g Tris-base, 0.476 g MgCl2 in 1 L of DI water, pH 9.0) at room temperature for 1 h with gentle rocking. The reaction was quenched with 0.1 M HCl.
Previously, we reported on this novel plate-based screening assay of the PRMT family of enzymes and identified a PRMT1 peptide substrate with kcat/Km of 8.1 × 10^4 M^−1 min^−1, which validated this screening methodology. In the current work, we utilized this method to screen a second-generation peptide library against PRMT1, which incorporated amino acids with diverse charge, size, and PTMs around the substrate arginine. Beads functionalized with peptide library members were washed extensively with buffers and subsequently incubated with PRMT1 for 60 min. The methylation reaction was then quenched with sodium dodecyl sulfate to denature PRMT1 and halt the enzymatic reaction. The peptide beads that contained ADMA as a result of PRMT1 action were identified using a 1° antibody that binds only to ADMA. […] The beads were then incubated with a 2° antibody conjugated to alkaline phosphatase. […]

[5] = reference histone peptide substrate in Table 3, same kcat/Km as quoted

T1 sequence (Q99873 1-353 isoform Q99873-3): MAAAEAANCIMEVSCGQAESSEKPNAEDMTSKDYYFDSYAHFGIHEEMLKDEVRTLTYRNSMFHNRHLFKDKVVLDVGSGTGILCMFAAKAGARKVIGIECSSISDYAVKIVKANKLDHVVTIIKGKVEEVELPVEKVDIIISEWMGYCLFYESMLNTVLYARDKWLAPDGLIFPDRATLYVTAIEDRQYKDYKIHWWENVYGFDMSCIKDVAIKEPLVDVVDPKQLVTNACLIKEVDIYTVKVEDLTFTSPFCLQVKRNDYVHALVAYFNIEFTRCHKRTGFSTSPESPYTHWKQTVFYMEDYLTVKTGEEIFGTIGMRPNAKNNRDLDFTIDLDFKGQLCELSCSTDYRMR

Compound	kcat [3]	Km ([3]; read-out: Km)	kcat/Km [3]	hit / non-hit as PRMT1 substrate in the plate-based screen [4]	other results
CC(=O)NCCCC[C@H](N)C(=O)N[C@@H](CCCCN)C(=O)N[C@@H](CS)C(=O)N[C@@H](CCCCN)C(=O)N[C@@H](C)C(=O)N[C@@H](CCCNC(=N)CCl)C(=O)NCC(=O)NCC(=O)N[C@@H](CCCCN)C(=O)NCC(=O)N[C@@H](CC(C)C)C(=O)NCC(=O)N[C@@H](CCCCN)C(=O)NCC(=O)NCC(=O)N[C@@H](C)C(=O)N[C@@H](CCCCN)C(N)=O [VALPep1 Warhead Peptide] (H-K(Ac)KCKA[X1]GGKGLGKGGAK-NH2)					IC50 [1]: 3.47 ± 0.46 µM
H4-21 peptide: one of the best-known PRMT1 peptide substrates					kcat/Km ([2]; known PRMT1 peptide substrate Histone H4-21, literature value, no reference printed): 4670 M⁻¹ s⁻¹; kcat/Km ([2]; known PRMT1 peptide substrate Histone H4-21, literature value, no reference printed, listed as Histone H4-21): 4670 M⁻¹ s⁻¹
SGRGKGGKGLGKGGAK [AcH4-16, Histone H4-16 peptide, a mediocre substrate of PRMT1, template of the library]					Km [2, 5]: 170 ± 25 µM; kcat [2, 5]: 0.00533 ± 1.7e-05 s⁻¹; kcat/Km ([2]; reference histone peptide substrate): 31.7 M⁻¹ s⁻¹
VKVCXRGGKGLGKGGAK [Well D5 Peptide, “hit” library peptide VKVCX…, X = acetylated lysine]	0.0318 ± 0.00188 s⁻¹	6.78 ± 1.77 µM	4700 M⁻¹ s⁻¹	hit	kcat ([3]; listed as Well D5): 0.03187 ± 0.00188 s⁻¹; kcat/Km ([3]; listed as Well D5): 4702 M⁻¹ s⁻¹
VXWAWRGGKGLGKGGAK [Well E9 Peptide, “non-hit” library peptide VX…, X = acetylated lysine]	not detectable			non-hit	Km [3]: not detectable
WWXXWRGGKGLGKGGAK [Well B10 Peptide, “non-hit” library peptide WWXX…, X = acetylated lysine]	not detectable			non-hit	Km [3]: not detectable
XCCVARGGKGLGKGGAK [Well G2 Peptide, “hit” library peptide X…, X = acetylated lysine]	0.0164 ± 6.7e-05 s⁻¹	25.4 ± 3.95 µM	648 M⁻¹ s⁻¹	hit	
XKCKARGGKGLGKGGAK [VALPep1]	0.041 ± 0.00133 s⁻¹	8.72 ± 1.2 µM	4700 M⁻¹ s⁻¹		
XKCVVRGGKGLGKGGAK [VALPep3]	0.0154 ± 0.0006 s⁻¹	6.92 ± 1.16 µM	2230 M⁻¹ s⁻¹		
XKKKARGGKGLGKGGAK [VALPep2]	0.043 ± 0.0029 s⁻¹	7.82 ± 2.23 µM	5480 M⁻¹ s⁻¹		
XKKVVRGGKGLGKGGAK [VALPep4]	0.0268 ± 0.00173 s⁻¹	7.42 ± 2.02 µM	3600 M⁻¹ s⁻¹		
